Test results published in PMC12583827, “Harnessing microbial-derived metabolites in the urinary tract to prevent infection induced catheter encrustation” (Nature Communications, 2025).
Structures can show the parent of a compound that is named as a salt.

Key:
[1] = system: P. mirabilis catheter biofilms; assay: Antibiotic testing in the in vitro “bladder” model; assay type: cell-based, Proteus mirabilis; details: 1ug/mL ceftriaxone added at 24 h
Description: The glass “bladder” system assembly, inoculation and sample collection were performed as described above. At 24 h post inoculation glass “bladders” were supplied with media containing the same metabolite (or AUM only control) with or without 1 µg/mL ceftriaxone sodium salt hydrate (Cayman Chemical Company, Michigan, USA). Samples were then collected from the catheter port at 27, 30, 33, 36 and 48 h to monitor pH and bacterial CFUs. After 48 h, the catheters were carefully removed, sectioned and assessed for bacterial viability as detailed in Supplementary Methods.

P. mirabilis urease = system: P. mirabilis urease; design: method as in PMID 8494373; details: limited concentrations tested; cited from earlier work
[2] = system: Helicobacter pylori urease; design: method as in earlier work; details: cited from earlier work
urease operon (ureR) = system: urease operon (ureR); design: method as in PMID 31921010; details: cited from earlier work
[3] = system: epithelial-like hepatocellular carcinoma cells (HepG2); details: cited from earlier work
[4] = cited from earlier work
[5] = system: human gastric cancer cells (SGC-7901); details: cited from earlier work
P. mirabilis = assay: In vitro glass “bladder” model of catheter encrustation; assay type: cell-based, Proteus mirabilis
Description: A Foley catheter is inserted aseptically into the vessel through an opening at the base, the balloon is inflated, and the catheter is attached to a catheter drainage bag (Fig. 7A). The “bladder” is supplied with sterile AUM at a physiologically relevant flow rate via peristaltic pump from a media reservoir, the “kidney” (Fig. 7A). An initial bacterial inoculum of 10^8 CFU of P. mirabilis was added to the AUM in the “bladder” inner chamber to model robust bacteriuria, followed by initiation of flow (Fig. 7B). The performance of urease-dampening metabolites was evaluated as a reduction in 1) effluent AUM pH over the 24 h study period, and 2) crystalline biofilm formation and ion precipitation on catheter segments 24 h post inoculation. Urease-dampening metabolites and AHA were introduced into the system by direct dissolution into the AUM reservoirs. For each study, both positive (untreated P. mirabilis) and negative (untreated P. mirabilis urease negative mutant) controls were included. Effluent urine samples were collected at 0, 3, 6, 9, 12 and 24 h post inoculation. This preclinical model of catheter encrustation was modified to assess whether prophylactic administration of urease-dampening metabolites increases efficacy of antimicrobials against catheter biofilms, as outlined in Fig. 9A. Each experiment was performed in triplicate. Full details of experimental set up, sample collection, and processing are provided below and in Supplementary Materials.
A previously described glass “bladder” model was used, in which a 500 mL water-jacketed glass vessel is maintained at 37 °C via a circulating water bath, a Foley catheter is inserted and inflated, and artificial urine medium (AUM) is supplied into the “bladder” at a constant flow rate (0.75-1.0 mL/min) through a peristaltic pump[55],[56]. For consistency with the in vitro urease activity assays and the physiologic range of urea in healthy human urine, AUM was supplemented with 500 mM urea[57]. Urease-dampening metabolites of interest were directly dissolved in AUM 500 mM urea, adjusted to a pH of 5.8, and filter sterilized via a 0.2μm filter. “Bladders” were inoculated with 10^8 CFUs of P. mirabilis. Samples were collected from the catheter port at 0, 3, 6, 9, 12, and 24 hours to monitor pH and bacterial CFUs. Catheters segments were processed for CFUs, crystal violet staining of biofilm biomass, and ion composition at 24 h. Full details are provided in the Supplementary Methods.
236 and the segments were air dried for 15 min. Catheter segments were stained with 1.0 ml 0.1%
237 crystal violet for 10 min, washed by gentle dunking in 1X phosphate-buffered saline (PBS) to
238 remove excess stain, and solubilized in a microcentrifuge tube containing 750μL of 1% SDS
239 95% ethanol and vortexed for 5 minutes. Crystal violet absorbance (OD570) was measured in a
240 BioTek Synergy H1 microplate reader and blanked using cell-free control wells for each biofilm
243 Catheter segment biofilm viability. Catheter segments were washed by gentle dunking in 1X
244 phosphate-buffered saline (PBS) to remove any remaining planktonic bacteria and residual AUM
245 from the catheter lumen. Catheter segments were then placed in a microcentrifuge tube
246 containing 1mL of 1X PBS and vortexed for 5 minutes to solubilize the biofilm. Samples
247 underwent serial 10-fold dilutions and were spiral plated (Eddy Jet 2; Neutec Group Inc.,
248 Farmingdale, NY) onto low-salt LB agar for enumeration of CFU using a ProtoCOL 3 automated
249 colony counter (Synbiosis).
251 Catheter segment elemental composition. Catheter segments were placed in a microcentrifuge

lymphoblasts (K562) = details: cited from earlier work
[6] = 24 h, alone: 5 mM AHA, 25 mM histamine, 25 mM 4-imidazole acetate

## CO/N=C(\C(=O)N[C@@H]1C(=O)N2C(C(=O)O)=C(CSc3nc(=O)c(=O)[nH]n3C)CS[C@H]12)c1csc(N)n1 [ceftriaxone, ceftriaxone sodium salt hydrate]
[1]
  AUM pH compared to the control “bladder”: no impact on pH
[1]; effluent, 48 h
  reduction in CFU/mL by the end of the experiment: 3 log

## Cc1c(OCC(F)(F)F)ccnc1C[S+]([O-])c1nc2ccccc2[nH]1 (stereo not shown) [lansoprazole]
P. mirabilis urease
  P. mirabilis urease activity: did not inhibit
[2]
  Helicobacter pylori urease activity: inhibit

## 2-Hydroxy-4-methoxybenzaldehyde
Urease operon (ureR)
  urease operon expression: reduce urease operon expression

## CC(=O)NO [AHA, acetohydroxamic acid, reference compound]
[3]
  decrease in viability of HepG2: 60-70%
[4]
  efficacy in clinical trials: showed efficacy in preventing urinary stone formation
[4]; in vivo
  severe side effects: teratogenesis, hemolytic anemia, psychoneurological and muscular symptoms
[5]
  decrease in viability of SGC-7901: 60-70%
P. mirabilis; 24 h, alone: 1.25 mM AHA, 12.5 mM histamine, 12.5 mM 4-imidazole acetate
  crystalline biofilm formation: no impact on crystalline biofilm formation
P. mirabilis; [6]
  Magnesium and phosphorus precipitation on catheter segments (ICP-OES): reduced, although the reduction was not statistically significant
  catheter biofilm biomass (crystal violet) vs untreated P. mirabilis: significantly reduced biofilm biomass
P. mirabilis; alone, lower concentrations
  pH of AUM collected from “bladders” over 24 h: failed to restrict pH
P. mirabilis; alone: 5 mM AHA, 25 mM histamine, 25 mM 4-imidazole acetate, nucleation point ~ pH 8
  pH of AUM collected from “bladders” over 24 h: never surpassed the nucleation point
P. mirabilis; tested individually
  P. mirabilis CFUs in effluent over time: no meaningful differences between CFUs over time
P. mirabilis; tested individually, dose response
  urease-mediated pH increase: perturbed urease-mediated pH increase in a dose-dependent manner
Lymphoblasts (K562)
  decrease in viability of K562: 60-70%

## COc1ccc2[nH]c([S+]([O-])Cc3ncc(C)c(OC)c3C)nc2c1 (stereo not shown) [Omeprazole]
P. mirabilis urease
  P. mirabilis urease activity: did not inhibit
[2]
  Helicobacter pylori urease activity: inhibit
